The text below walks through data of publication PMC6037691, “Selenazolyl-hydrazones as Novel Selective MAO Inhibitors With Antiproliferative and Antioxidant Activities: Experimental and In-silico Studies” (Frontiers in Chemistry, 2018).

Test [1] in a line: DPPH scavenging antioxidant assay. Particulars: concentration providing 50% of radicals scavenging activity; mean ± SD, n = 3. Here is the method:
The experiments were performed according to the literature protocol (Prior et al., [2005]). All tested compounds were initially dissolved in DMSO. The initial concentration of DPPH in methanol was 6.58 × 10^−5 M. A volume of 140 μL of DPPH solution was placed into a 96-well microplate, and then 10 μL solution of the tested compounds was added. Pure DMSO (10 μL) was used as the control. The absorbance at 517 nm was measured after 30 min period of incubation in the dark at 25°C. The Equation (1) was used for calculation of the scavenging activity:
(1) Scavenging activity (%)=Acontrol- Asample/Acontrol×100
where Asample and Acontrol refer to the absorbances at 517 nm of the sample and control, respectively. IC50 values were calculated from the graph of scavenging activity against the concentrations of the samples. IC50 represents the total antioxidant concentration of the sample which decreases the amount of the initial DPPH radical by 50%. Ascorbic acid (vitamin C) was used as positive control (concentration range 10–500 μM).
A general note: DPPH is a stable violet radical that fades when it is reduced.

The next test addresses T1, MAO A (Homo sapiens, UniProt P21397).
T1 construct: purchased Sigma-Aldrich
T1 sequence (P21397 1-527): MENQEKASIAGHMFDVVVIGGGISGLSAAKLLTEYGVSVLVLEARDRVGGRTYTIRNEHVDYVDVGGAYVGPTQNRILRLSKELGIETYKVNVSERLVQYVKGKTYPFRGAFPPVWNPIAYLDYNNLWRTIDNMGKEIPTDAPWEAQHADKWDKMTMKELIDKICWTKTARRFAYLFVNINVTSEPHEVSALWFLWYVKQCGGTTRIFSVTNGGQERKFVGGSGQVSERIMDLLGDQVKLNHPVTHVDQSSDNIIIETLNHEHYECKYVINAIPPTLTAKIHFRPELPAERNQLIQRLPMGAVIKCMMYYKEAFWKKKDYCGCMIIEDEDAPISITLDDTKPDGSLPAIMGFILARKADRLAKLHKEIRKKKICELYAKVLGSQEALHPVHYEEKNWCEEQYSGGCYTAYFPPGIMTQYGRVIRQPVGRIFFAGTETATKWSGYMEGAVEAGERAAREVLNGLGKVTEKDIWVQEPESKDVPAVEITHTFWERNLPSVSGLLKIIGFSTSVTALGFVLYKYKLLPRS
Put plainly: MAO A inhibition, discontinuous fluorimetric kynuramine assay. Type of test: biochemical. Particulars: for inhibition at 1 µM: 1 μM inhibitor, mean ± SD, n = 2, normalized to control. Here is the method: MAO A and B inhibition capacities were investigated using a discontinuous fluorimetric assay (Meiring et al., [2013]) as described previously by using human recombinant membrane-bound MAO purchased from Sigma-Aldrich (Affini et al., [2018]). Briefly, remained enzyme activity with inhibitor, either 1 μM (one-point) or concentrations ranging from 0.0001 to 10 μM, was assessed in the presence of kynuramine [2 × KM, KM = 20 μM (MAO A), KM = 30 μM (MAO B)] in potassium phosphate buffer (pH 7.4). Reactions were started by addition of enzyme and stopped by manual addition of sodium hydroxide (2 N) after 20 min. Enzyme activity was determined by detection of 4-hydroxyquinoline (λEx = 320 nm, λEm = 405 nm). Data were analyzed using GraphPad PRISM 6. For one-point measurements data were calculated as percentage of control and expressed as mean ± standard deviation (%). […] Data were obtained from two (one-point measurements) or at least three (IC50 values) independent experiments, each performed in duplicates.

The test system of test [2] is six human solid tumor cell lines. The test can be described thus: Antiproliferative activity, panel as a whole. Where no limit is named, active and inactive come without a cut-off here. Also noted: key: moderate activity (GI50 = 10–100 μM); good activity (GI50 = 1–10 μM); inactive (GI50 > 100 μM). Type of test: cell-based. To be noted: five cell lines of the six. How it is done:
The in vitro antiproliferative activity of investigated compounds was evaluated against six human solid tumor cell lines: A549 (non-small cell lung), HBL-100, (breast), HeLa (cervix), SW1573 (non-small cell lung), as drug sensitive lines, T-47D (breast) and WiDr (colon) as drug resistant lines. These cell lines were a kind gift from Prof. G. J. Peters (VU Medical Center, Amsterdam, The Netherlands). For selectivity studies, the human fibroblasts BJ-hTert cell line was used, which was obtained from Dr. R. Freire (HUC, Tenerife, Canary Islands). Cells were kept in culture medium under standard conditions: RPMI 1640 medium, fetal bovine serum (5%), glutamine (2 mM), penicillin G (100 units/mL) and streptomycin (0.1 mg/mL). Antiproliferative tests were conducted as described earlier (Skehan et al., [1990]; Miranda et al., [2006]). Tested compounds were dissolved in DMSO at an initial concentration of 40 mM. DMSO was used as negative control (0.25% v/v). Antiproliferative activity of the compounds was expressed as GI50, which is the concentration of the compound that inhibits 50% of the culture growth.

Some results are limits rather than exact numbers.

The term IC50 denotes the concentration needed to halve the response being measured. By inhibition is commonly meant the drop in the measured response relative to a control, in per cent. Consider `C(=NNc1nc(-c2ccccc2)c[se]1)c1ccccc1` [Compound 1, 2-(2-benzylidenehydrazinyl)-4-phenyl-1,3-selenazole], for which the IC50 in test [1] is 8.63 ± 1.66 µM; against MAO A (mean, 95% CI, at least three experiments), above 10 µM. The inhibition at 1 µM at MAO A was -6.8 ± 12.6%.

In test [1], `COc1ccc(-c2c[se]c(NN=Cc3ccccc3)n2)cc1` [Compound 1-OMe, 2-(2-benzylidenehydrazinyl)-4-(4-methoxyphenyl)-1,3-selenazole] returned an IC50 of 54.3 ± 4.54 µM. Further, the “antiproliferative activity class against five cell lines” value in test [2] was “inactive”. Moreover, the inhibition at 1 µM against MAO A came out at 32.4 ± 3.3%.

Turning to `O=[N+]([O-])c1ccccc1C=NNc1nc(-c2ccccc2)c[se]1` [Compound 2, 2-(2-(2-nitrobenzylidene)hydrazinyl)-4-phenyl-1,3-selenazole], the IC50 in test [1] amounted to 21.9 ± 5.6 µM. Moreover, the inhibition at 1 µM on MAO A is 26.5 ± 3.7%.

`Cc1ccc(-c2c[se]c(NN=Cc3ccccc3[N+](=O)[O-])n2)cc1` [Compound 2-Me, 2-(2-(2-nitrobenzylidene)hydrazinyl)-4-(p-tolyl)-1,3-selenazole]: in test [1], the IC50 was 20.2 ± 4.3 µM. The inhibition at 1 µM against MAO A was determined as 17.2 ± 1.9%.

Compound `COc1ccc(-c2c[se]c(NN=Cc3ccccc3[N+](=O)[O-])n2)cc1` [Compound 2-OMe, 4-(4-methoxyphenyl)-2-(2-(2-nitrobenzylidene)hydrazinyl)-1,3-selenazole] came in with an IC50 in test [1] of 40.5 ± 3.8 µM. On MAO A, the inhibition at 1 µM was 28 ± 4%.

The compound `O=[N+]([O-])c1cccc(C=NNc2nc(-c3ccccc3)c[se]2)c1` [Compound 3, 2-(2-(3-nitrobenzylidene)hydrazinyl)-4-phenyl-1,3-selenazole] gave a concentration for half-maximal inhibition (IC50) in test [1] of 174 ± 11.6 µM. On MAO A, the inhibition at 1 µM worked out at 32.7 ± 6.2%.

The compound `Cc1ccc(-c2c[se]c(NN=Cc3cccc([N+](=O)[O-])c3)n2)cc1` [Compound 3-Me, 2-(2-(3-nitrobenzylidene)hydrazinyl)-4-(p-tolyl)-1,3-selenazole] displayed an IC50 in test [1] of 152 ± 10.1 µM. At MAO A, the inhibition at 1 µM was 13.4 ± 2.4%.

`COc1ccc(-c2c[se]c(NN=Cc3cccc([N+](=O)[O-])c3)n2)cc1` [Compound 3-OMe, 4-(4-methoxyphenyl)-2-(2-(3-nitrobenzylidene)hydrazinyl)-1,3-selenazole] came in with an IC50 in test [1] of 298 ± 14.8 µM. Also, on MAO A, the inhibition at 1 µM was determined as 31.2 ± 1.6%.
